Measured values reported in patent US12503475B2 (Centessa Pharmaceuticals (UK) Limited, priority 2020, dated 2025).
Read-outs that look alike come from different tables or passages of the source.

Molecular target: T1, human orexin type 2 receptor (hOX2R) (Homo sapiens, UniProt O43614)
T1 construct: expressed in transfected cells
T1 sequence (O43614 1-444): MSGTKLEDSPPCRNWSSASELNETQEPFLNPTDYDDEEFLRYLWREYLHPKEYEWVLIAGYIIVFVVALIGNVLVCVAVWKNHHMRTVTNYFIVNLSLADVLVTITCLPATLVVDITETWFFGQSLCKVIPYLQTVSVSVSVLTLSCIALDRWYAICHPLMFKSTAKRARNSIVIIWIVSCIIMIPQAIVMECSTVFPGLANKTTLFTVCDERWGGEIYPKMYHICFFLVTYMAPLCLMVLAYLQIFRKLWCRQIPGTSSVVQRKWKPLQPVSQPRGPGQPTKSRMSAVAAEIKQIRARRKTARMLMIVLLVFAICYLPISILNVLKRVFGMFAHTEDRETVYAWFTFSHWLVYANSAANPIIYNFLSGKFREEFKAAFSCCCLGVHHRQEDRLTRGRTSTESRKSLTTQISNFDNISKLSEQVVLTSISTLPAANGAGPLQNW
Experiment: Measurement of orexin type 2 receptor agonist activity (FLIPR calcium fluorescence)
Assay type: cell-based
Details: for Emax: CHO, read-out: hOx2 Emax (%)
Summary of the method: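 Agonism was read as fluorescence in cells stably expressing human OX2R. E. is the response at 10 μM relative to orexin A as full agonist (100%).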

[1] = CHO cells expressing hOX2R, FLIPR calcium fluorescence, read-out: hOx2 pEC50 (converted)
[2] = CHO cells expressing hOX2R, FLIPR calcium fluorescence

Row | Compound | EC50 [1] [nM] | Emax [2] [%] | Emax [%] | EC50 (hOx2 pEC50, CHO cells expressing hOX2R, FLIPR calcium fluorescence) [nM]
1 | CCS(=O)(=O)NC1C(Cc2cccc(-c3ccccc3)c2)N(C(=O)C(C)C)CC12CC2 (racemic) [Compound 7, N-(6-([1,1-biphenyl]-3-ylmethyl)-5-isobutyryl-5-azaspiro[2.4]heptan-7-yl)ethanesulfonamide] | 1 to 10 | 90 to 100 | – | –
2 | COC[C@@H](O)C(=O)N1CC2(CC2)[C@H](NS(C)(=O)=O)[C@@H]1Cc1cccc(-c2ccccc2)c1 [Compound 63, N-((6S,7S)-6-([1,1′-biphenyl]-3-ylmethyl)-5-((R)-2-hydroxy-3-methoxypropanoyl)-5-azaspiro[2.4]heptan-7-yl)methanesulfonamide] | 10 to 100 | 80 to 90 | – | –
3 | O=C([C@H](O)CF)N1CC2(CC2)[C@H](NS(=O)(=O)C(F)F)[C@@H]1Cc1cccc(-c2cc(F)cc(F)c2)c1F [Compound 392, 1,1-difluoro-N-((6S,7S)-5-((S)-3-fluoro-2-hydroxypropanoyl)-6-((2,3′,5′-trifluoro-[1,1′-biphenyl]-3-yl)methyl)-5-azaspiro[2.4]heptan-7-yl)methanesulfonamide] | 0.0794 to 1 | 90 to 100 | – | –
4 | O=C([C@H]1CCO1)N1CC2(CC2)[C@H](NS(=O)(=O)C(F)F)[C@@H]1Cc1cc(F)cc(-c2cc(F)cc(F)c2)c1F [Compound 220, 1,1-difluoro-N-((6S,7S)-5-((R)-oxetane-2-carbonyl)-6-((2,3′,5,5′-tetrafluoro-[1,1′-biphenyl]-3-yl)methyl)-5-azaspiro[2.4]heptan-7-yl)methanesulfonamide] | 1 to 10 | 90 to 100 | – | –
5 | CC1CN(C(=O)N2CC3(CC3)C(NS(C)(=O)=O)C2Cc2cccc(-c3ccccc3)c2)C1 (racemic) [Compound 57, N-(6-([1,1′-biphenyl]-3-ylmethyl)-5-(3-methylazetidine-1-carbonyl)-5-azaspiro[2.4]heptan-7-yl)methanesulfonamide] | 1 to 10 | 90 to 100 | – | –
6 | CCCS(=O)(=O)N[C@@H]1[C@H](Cc2cccc(-c3ccccc3)c2)N(C(=O)[C@H]2CCO2)CC12CC2 [Compound 310, N-((6S,7S)-6-([1,1′-biphenyl]-3-ylmethyl)-5-((R)-oxetane-2-carbonyl)-5-azaspiro[2.4]heptan-7-yl)propane-1-sulfonamide] | 10 to 100 | 90 to 100 | – | –
7 | COC1CN(C(=O)N2CC3(CC3)[C@H](NS(=O)(=O)N(C)C)[C@@H]2Cc2cccc(-c3ccccc3)c2F)C1 [Compound 118, N-((6S,7S)-6-((2-fluoro-[1,1′-biphenyl]-3-yl)methyl)-5-(3-methoxyazetidine-1-carbonyl)-5-azaspiro[2.4]heptan-7-yl)-N,N-dimethylsulfuric diamide] | 1 to 10 | 90 to 100 | – | –
8 | O=C(NCC1(F)CC1)N1CC2(CC2)[C@H](NS(=O)(=O)CF)[C@@H]1Cc1cccc(-c2ccccc2)c1F [Compound 157, (6S,7S)-6-((2-fluoro-[1,1′-biphenyl]-3-yl)methyl)-N-((1-fluorocyclopropyl)methyl)-7-((fluoromethyl)sulfonamido)-5-azaspiro[2.4]heptane-5-carboxamide] | 0.0794 to 1 | 90 to 100 | – | –
9 | CS(=O)(=O)NC1C(Cc2cccc(-c3ccccc3)c2F)N(C(=O)C2(O)CCC2)CC12CC2 (racemic) [Compound 50, N-(6-((2-fluoro-[1,1′-biphenyl]-3-yl)methyl)-5-(1-hydroxycyclobutane-1-carbonyl)-5-azaspiro[2.4]heptan-7-yl)methanesulfonamide] | 0.0794 to 1 | 90 to 100 | – | –
10 | CS(=O)(=O)N[C@@H]1[C@H](Cc2cccc(-c3ccccc3)c2F)N(C(=O)NCCF)CC12CC2 [Compound 86, (6S,7S)-6-((2-fluoro-[1,1′-biphenyl]-3-yl)methyl)-N-(2-fluoroethyl)-7-(methylsulfonamido)-5-azaspiro[2.4]heptane-5-carboxamide] | 1 to 10 | 90 to 100 | – | –
11 | O=C([C@H]1CCO1)N1CC2(CC2)[C@H](NS(=O)(=O)CF)[C@@H]1Cc1cccc(-c2cccc(C(F)F)c2)c1F [Compound 196, N-((6S,7S)-6-((3′-(difluoromethyl)-2-fluoro-[1,1′-biphenyl]-3-yl)methyl)-5-((R)-oxetane-2-carbonyl)-5-azaspiro[2.4]heptan-7-yl)-1-fluoromethanesulfonamide] | 0.0794 to 1 | 90 to 100 | – | –
12 | CS(=O)(=O)N[C@H]1[C@@H](Cc2cccc(-c3ccccc3)c2F)N(C(=O)[C@@H]2CCO2)CC12CC2 [Compound 19, N-((6R,7R)-6-((2-fluoro-[1,1′-biphenyl]-3-yl)methyl)-5-((S)-oxetane-2-carbonyl)-5-azaspiro[2.4]heptan-7-yl)methanesulfonamide] | > 1000 | 90 to 100 | – | –
13 | COc1c(C[C@H]2[C@@H](NS(C)(=O)=O)C3(CC3)CN2C(=O)NCC(F)(F)F)cccc1-c1ccccc1 [Compound 343, (6S,7S)-6-((2-methoxy-[1,1′-biphenyl]-3-yl)methyl)-7-(methylsulfonamido)-N-(2,2,2-trifluoroethyl)-5-azaspiro[2.4]heptane-5-carboxamide] | 10 to 100 | 70 to 80 | – | –
14 | CCNC(=O)N1CC2(CC2)[C@H](NS(C)(=O)=O)[C@@H]1Cc1cccc(-c2ccccc2)c1OC [Compound 54, (6S,7S)—N-ethyl-6-((2-methoxy-[1,1′-biphenyl]-3-yl)methyl)-7-(methylsulfonamido)-5-azaspiro[2.4]heptane-5-carboxamide] | – | – | 80 to 90 | 1 to 10
15 | O=C([C@H]1CCO1)N1CC2(CC2)[C@H](NS(=O)(=O)CF)[C@@H]1Cc1cccc(-c2cccc(C(F)(F)F)c2)c1F [Compound 197, 1-fluoro-N-((6S,7S)-6-((2-fluoro-3′-(trifluoromethyl)-[1,1′-biphenyl]-3-yl)methyl)-5-((R)-oxetane-2-carbonyl)-5-azaspiro[2.4]heptan-7-yl)methanesulfonamide] | 10 to 100 | 80 to 90 | – | –
16 | N#CC1(C(=O)N2CC3(CC3)[C@H](NS(=O)(=O)CF)[C@@H]2Cc2cccc(-c3ccccc3)c2F)CCC1 [Compound 181, N-((6S,7S)-5-(1-cyanocyclobutane-1-carbonyl)-6-((2-fluoro-[1,1′-biphenyl]-3-yl)methyl)-5-azaspiro[2.4]heptan-7-yl)-1-fluoromethanesulfonamide] | 1 to 10 | 90 to 100 | – | –
17 | O=C([C@H]1CCO1)N1CC2(CC2)[C@H](NS(=O)(=O)CF)[C@@H]1Cc1cccc(-c2ccccc2)c1F [Compound 93, 1-fluoro-N-((6S,7S)-6-((2-fluoro-[1,1′-biphenyl]-3-yl)methyl)-5-((R)-oxetane-2-carbonyl)-5-azaspiro[2.4]heptan-7-yl)methanesulfonamide] | 0.0794 to 1 | 90 to 100 | – | –
18 | C[C@@H](F)CNC(=O)N1CC2(CC2)[C@H](NS(=O)(=O)CF)[C@@H]1Cc1cccc(-c2ccccc2)c1F [Compound 206, (6S,7S)-6-((2-fluoro-[1,1′-biphenyl]-3-yl)methyl)-7-((fluoromethyl)sulfonamido)-N—((R)-2-fluoropropyl)-5-azaspiro[2.4]heptane-5-carboxamide] | 1 to 10 | – | 90 to 100 | –
19 | CS(=O)(=O)N[C@@H]1[C@H](Cc2cccc(-c3cccc(F)c3)c2)N(C(=O)[C@H]2CCO2)CC12CC2 [Compound 305] | 10 to 100 | 90 to 100 | – | –
20 | Cn1ccc(S(=O)(=O)N[C@@H]2[C@H](Cc3cccc(-c4ccccc4)c3)N(C(=O)[C@H]3CCO3)CC23CC3)n1 [Compound 72, N-((6S,7S)-6-([1,1′-biphenyl]-3-ylmethyl)-5-((R)-oxetane-2-carbonyl)-5-azaspiro[2.4]heptan-7-yl)-1-methyl-1H-pyrazole-3-sulfonamide] | 1 to 10 | 90 to 100 | – | –
21 | CC(F)(F)C(=O)N1CC2(CC2)C(NS(C)(=O)=O)C1Cc1cccc(-c2cccc(F)c2)c1F (racemic) [Compound 24, N-(6-((2,3′-difluoro-[1,1′-biphenyl]-3-yl)methyl)-5-(2,2-difluoropropanoyl)-5-azaspiro[2.4]heptan-7-yl)methanesulfonamide] | 10 to 100 | 80 to 90 | – | –
22 | CS(=O)(=O)N[C@@H]1[C@H](Cc2cccc(-c3ccccc3)c2F)N(C(=O)NCC2COC2)CC12CC2 [Compound 334, (6S,7S)-6-((2-fluoro-[1,1′-biphenyl]-3-yl)methyl)-7-(methylsulfonamido)-N-(oxetan-3-ylmethyl)-5-azaspiro[2.4]heptane-5-carboxamide] | 1 to 10 | 90 to 100 | – | –
23 | CS(=O)(=O)N[C@@H]1[C@H](Cc2cccc(-c3ccccc3)c2F)N(C(=O)NC[C@H]2CCOC2)CC12CC2 [Compound 335, (6S,7S)-6-((2-fluoro-[1,1′-biphenyl]-3-yl)methyl)-7-(methylsulfonamido)-N-(((R)-tetrahydrofuran-3-yl)methyl)-5-azaspiro[2.4]heptane-5-carboxamide] | 1 to 10 | 90 to 100 | – | –
24 | O=C(NCC(F)F)N1CC2(CC2)[C@H](NS(=O)(=O)CF)[C@@H]1Cc1cccc(-c2cc(F)cc(F)c2)c1F [Compound 411] | 0.0794 to 1 | 90 to 100 | – | –
25 | C[C@@H](F)C(=O)N1CC2(CC2)[C@H](NS(=O)(=O)CF)[C@@H]1Cc1cc(F)cc(-c2cccc(F)c2)c1F [Compound 394] | 0.0794 to 1 | 90 to 100 | – | –
